Test results reported in the supplement of paper PMC10307832.

Columns and labels:
Assay in all cases: relative viability (nuclei count vs DMSO), 5 days (fraction); higher = more cells survive
[1] = compound: CC(C)(C)c1cc(NC(=O)Nc2ccc(-c3cn4c(n3)sc3cc(OCCN5CCOCC5)ccc34)cc2)no1 [Quizartinib] + C[C@@H](Oc1cc(-c2cnn(C3CCNCC3)c2)cnc1N)c1c(Cl)ccc(F)c1Cl [Crizotinib] (partner 1 µM)
Outline: (§1)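 Lung cancer cell lines in 1536-well plates were dosed by pin tool the day after seeding, either with one drug alone or with a fixed anchor-drug dose plus five library-drug doses (not always all listed) in √10 steps. After 5 days, cells were fixed and their nuclei stained in one step (final 0.05% Triton X-100, 1% formaldehyde, 1 ug/ml Hoechst), then counted on 4× images. Relative viability is the nuclei count in treated wells divided by that in vehicle wells. Values are medians of duplicate plates.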

[2] = compound: CC(C)(C)c1cc(NC(=O)Nc2ccc(-c3cn4c(n3)sc3cc(OCCN5CCOCC5)ccc34)cc2)no1 [Quizartinib] + CCNC(=O)c1noc(-c2cc(C(C)C)c(O)cc2O)c1-c1ccc(CN2CCOCC2)cc1 [Luminespib] (partner 0.01 µM)
Outline: as §1

[3] = compound: COCC[n+]1c2c(n(Cc3cnccn3)c1C)C(=O)c1ccccc1C2=O [YM155] + COc1cccc2cc(-c3nc([C@H]4CC[C@H](C(=O)O)CC4)n4ncnc(N)c34)[nH]c12 [OSI-027] (partner 0.5 µM)
Outline: as §1

[4] = compound: CC(C)(C)c1cc(NC(=O)Nc2ccc(-c3cn4c(n3)sc3cc(OCCN5CCOCC5)ccc34)cc2)no1 [Quizartinib] + Nc1nc2[nH]cc(CCc3ccc(C(=O)N[C@@H](CCC(=O)O)C(=O)O)cc3)c2c(=O)[nH]1 [Pemetrexed] (partner 0.2 µM)
Outline: as §1

| Cell Line | relative viability ([1]; first compound 0.001 µM) | relative viability ([1]; first compound 0.003162 µM) | relative viability ([1]; first compound 0.01 µM) | relative viability ([1]; first compound 0.03162 µM) | relative viability ([1]; first compound 0.1 µM) | relative viability ([2]; first compound 0.001 µM) | relative viability ([2]; first compound 0.003162 µM) | relative viability ([2]; first compound 0.01 µM) | relative viability ([2]; first compound 0.03162 µM) | relative viability ([2]; first compound 0.1 µM) | relative viability ([3]; first compound 0.002 µM) | relative viability ([3]; first compound 0.006325 µM) | relative viability ([3]; first compound 0.02 µM) | relative viability ([3]; first compound 0.06325 µM) | relative viability ([4]; first compound 0.001 µM) | relative viability ([4]; first compound 0.003162 µM) | relative viability ([4]; first compound 0.01 µM) | relative viability ([4]; first compound 0.03162 µM) | relative viability ([4]; first compound 0.1 µM) |
| --- | --- | --- | --- | --- | --- | --- | --- | --- | --- | --- | --- | --- | --- | --- | --- | --- | --- | --- | --- |
| NCI-H1755 | 0.819 | 0.839 | 0.95 | 0.853 | 0.791 | 0.473 | 0.243 | 0.555 | 0.459 | 0.39 | 0.716 | 0.753 | 0.747 | 0.705 | 0.316 | 0.399 | 0.412 | 0.464 | 0.378 |
| NCI-H1792 | 0.743 | 0.978 | 1.04 | 0.958 | 0.995 | – | 0.484 | 0.452 | 0.321 | 0.444 | 0.743 | 0.889 | 0.677 | 0.83 | 0.624 | 0.79 | 0.913 | 0.69 | 0.713 |
| NCI-H1915 | 0.83 | 0.841 | 0.905 | 0.983 | 0.944 | 0.786 | 0.714 | 0.828 | 0.829 | 0.815 | 0.585 | 0.593 | 0.613 | 0.574 | 0.49 | 0.47 | 0.552 | 0.477 | 0.488 |
| NCI-H1944 | 1.11 | 1.09 | 1.15 | 1.21 | 1.11 | 0.757 | 0.804 | 0.774 | 0.727 | 0.722 | 0.364 | 0.381 | 0.445 | 0.485 | 0.55 | 0.575 | 0.601 | 0.654 | 0.583 |
| NCI-H1975 | 1.02 | 0.929 | 0.922 | 0.986 | 1.09 | 0.166 | 0.273 | 0.164 | 0.212 | 0.202 | 0.596 | 0.742 | 0.67 | 0.541 | 0.283 | 0.306 | 0.316 | 0.295 | 0.294 |
| NCI-H1993 | 0.904 | 0.951 | 0.916 | 0.952 | 0.948 | 0.862 | 1.03 | 0.965 | 0.844 | 0.692 | 0.563 | 0.569 | 0.583 | 0.522 | 0.55 | 0.566 | 0.567 | 0.67 | 0.59 |
| NCI-H2009 | 0.984 | 1.02 | 0.994 | 0.603 | 1 | 0.915 | 1.01 | 1.07 | 0.967 | 1.03 | 0.567 | 0.604 | 0.647 | 0.382 | 0.946 | 0.932 | 1.05 | 1.02 | 1.07 |
| NCI-H2023 | 0.648 | 0.57 | 0.799 | 0.246 | 0.543 | 0.73 | 0.664 | 0.759 | – | 0.624 | 0.442 | 0.455 | 0.403 | 0.195 | 0.209 | 0.215 | 0.295 | – | 0.244 |
| NCI-H2085 | 0.745 | 0.795 | 0.998 | 0.833 | 0.836 | 0.403 | 0.391 | 0.454 | 0.419 | 0.393 | 0.742 | 0.783 | 0.809 | 0.421 | 0.82 | 0.879 | 0.97 | 0.836 | 0.833 |
| NCI-H2087 | 0.717 | 0.685 | 0.883 | 0.767 | 0.863 | – | 0.206 | 0.174 | 0.177 | 0.156 | 0.492 | 0.567 | 0.715 | 0.618 | 0.66 | 0.536 | 0.71 | 0.661 | 0.651 |
| NCI-H2126 | 0.816 | 0.992 | 1.12 | 0.962 | 1.07 | 0.844 | 0.828 | 0.798 | – | 1.11 | 0.645 | 0.714 | 0.761 | 0.727 | 0.682 | 0.658 | 0.765 | 0.663 | 0.689 |
| NCI-H2170 | 1.15 | 1.11 | 1.17 | 1.2 | 1.19 | 0.65 | 0.741 | 0.838 | 0.769 | 0.737 | 0.698 | 0.785 | 0.695 | 0.74 | 0.252 | 0.242 | 0.279 | 0.293 | 0.277 |
| NCI-H2228 | 0.439 | 0.414 | 0.317 | 0.418 | 0.429 | 0.176 | 0.153 | 0.139 | 0.214 | 0.159 | 0.612 | 0.689 | 0.605 | 0.713 | 0.288 | 0.311 | 0.355 | 0.316 | 0.317 |
| NCI-H2347 | 0.719 | 0.788 | 0.704 | 0.585 | 0.762 | 0.335 | 0.51 | 0.41 | 0.495 | 0.624 | 0.371 | 0.504 | 0.421 | 0.421 | 0.426 | 0.382 | 0.45 | 0.443 | 0.456 |
| NCI-H2405 | 0.791 | 0.89 | 0.946 | 0.803 | 0.925 | 0.641 | 0.747 | 0.562 | 0.75 | 0.724 | 0.625 | 0.613 | 0.616 | 0.465 | 0.961 | 1.04 | 1.02 | 1.08 | 1.15 |
| NCI-H3122 | 0.268 | 0.253 | 0.304 | 0.279 | 0.26 | 0.0909 | 0.0886 | 0.079 | 0.106 | 0.112 | 0.995 | 1 | 1.05 | 0.715 | 0.185 | 0.201 | 0.193 | 0.2 | 0.211 |
| PC-3 [JPC-3] | 0.978 | 0.961 | 1.01 | 0.955 | 0.955 | 0.556 | 0.676 | 0.808 | 0.733 | 0.724 | 0.784 | 0.783 | 0.808 | 0.809 | 0.845 | 1.12 | 0.852 | 1 | 1.17 |
| PC-14 | 0.839 | 0.917 | 1.07 | 0.814 | 0.818 | 0.181 | 0.168 | 0.164 | – | 0.127 | 0.788 | 0.901 | 0.829 | 0.371 | 0.134 | 0.143 | 0.13 | – | 0.162 |
| RERF-LC-KJ | 0.8 | 0.596 | 1 | 0.795 | 0.798 | 1.12 | 1.19 | 1.38 | 0.96 | 1.12 | 0.663 | 0.637 | 0.618 | 0.633 | 0.458 | 0.493 | 0.48 | 0.457 | 0.492 |
| SK-LU-1 | 0.797 | 0.785 | 1.23 | 0.781 | 0.914 | 0.205 | 0.191 | 0.212 | 0.201 | 0.232 | 0.358 | 0.316 | 0.396 | 0.348 | 0.875 | 0.912 | 1.08 | 0.975 | 0.993 |
| SK-MES-1 | 0.943 | 0.949 | 1.12 | 0.976 | 0.937 | 0.736 | 0.789 | 0.541 | – | 0.646 | 0.582 | 0.712 | 0.628 | 0.19 | 0.939 | 0.904 | 0.981 | 0.563 | 0.817 |
| SW 1573 | 0.611 | 0.837 | 0.823 | 0.803 | 0.895 | 0.163 | 0.21 | 0.164 | – | 0.255 | 0.549 | 0.705 | 0.406 | 0.0803 | 0.872 | 0.75 | 0.826 | – | 0.848 |
| UMC-11 | 0.543 | 0.562 | 0.739 | 0.66 | 0.577 | – | 0.954 | 1.13 | 1.02 | 1.14 | 0.465 | 0.499 | 0.514 | 0.465 | 0.676 | 0.787 | 0.864 | 0.771 | 0.818 |
